From PubChem BioAssay AID624425 (The Scripps Research Institute Molecular Screening Center, 2012)

target: Serine/threonine-protein phosphatase 5 (Homo sapiens) (UniProt P53041); assay: PP5 inhibitor potency, OMFP substrate, dose response, biochemical, fluorescence, round 5, powder samples (AID 624425); settings: purified PP5c, OMFP dephosphorylation
Sequence (P53041 whole entry, looked up): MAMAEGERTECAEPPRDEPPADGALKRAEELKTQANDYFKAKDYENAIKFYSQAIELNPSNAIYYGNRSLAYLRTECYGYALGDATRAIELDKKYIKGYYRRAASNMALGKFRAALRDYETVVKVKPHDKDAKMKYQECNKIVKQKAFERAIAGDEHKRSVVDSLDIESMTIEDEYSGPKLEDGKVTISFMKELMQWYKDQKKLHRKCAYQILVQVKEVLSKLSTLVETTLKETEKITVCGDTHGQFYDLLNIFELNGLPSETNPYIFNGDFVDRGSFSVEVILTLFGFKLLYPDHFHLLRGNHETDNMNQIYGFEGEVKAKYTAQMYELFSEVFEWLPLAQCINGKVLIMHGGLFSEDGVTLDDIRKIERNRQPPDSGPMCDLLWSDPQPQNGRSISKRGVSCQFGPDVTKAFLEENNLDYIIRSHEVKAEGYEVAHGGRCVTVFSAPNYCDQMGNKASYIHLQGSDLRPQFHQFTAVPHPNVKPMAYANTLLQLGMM

Q: With `O=C(O)c1n[nH]nc1-c1ccc(F)cc1` as the molecule, how does the IC50 read?
A: The IC50 was 24.1 µM.

Q: For `O=C(O)c1n[nH]nc1-c1ccccc1F`, which IC50 is on record?
A: The IC50 was 7.75 µM.

Q: `COc1ccc(-c2n[nH]nc2C(=O)O)cc1` was tested. Which IC50 did it give?
A: Its IC50 is 23.1 µM.

Q: How did the IC50 turn out when `O=C(O)c1n[nH]nc1-c1cccc(F)c1` was run?
A: The IC50 was 17.8 µM.

Q: With `COc1cccc(-c2n[nH]nc2C(=O)O)c1` as the molecule, how does the IC50 read?
A: The IC50 was 10.9 µM.

Q: How did the IC50 turn out when `COc1ccccc1-c1n[nH]nc1C(=O)O` was run?
A: The IC50 was 6 µM.

Q: How did the IC50 turn out when `O=C(O)c1n[nH]nc1-c1ccccc1O` was run?
A: Its IC50 is 7.74 µM.
